Data set [1] concerns the target T1, Rtt109-Vps75 (Saccharomyces cerevisiae, UniProt P53853+Q07794).
T1 sequence (Q07794 1-436): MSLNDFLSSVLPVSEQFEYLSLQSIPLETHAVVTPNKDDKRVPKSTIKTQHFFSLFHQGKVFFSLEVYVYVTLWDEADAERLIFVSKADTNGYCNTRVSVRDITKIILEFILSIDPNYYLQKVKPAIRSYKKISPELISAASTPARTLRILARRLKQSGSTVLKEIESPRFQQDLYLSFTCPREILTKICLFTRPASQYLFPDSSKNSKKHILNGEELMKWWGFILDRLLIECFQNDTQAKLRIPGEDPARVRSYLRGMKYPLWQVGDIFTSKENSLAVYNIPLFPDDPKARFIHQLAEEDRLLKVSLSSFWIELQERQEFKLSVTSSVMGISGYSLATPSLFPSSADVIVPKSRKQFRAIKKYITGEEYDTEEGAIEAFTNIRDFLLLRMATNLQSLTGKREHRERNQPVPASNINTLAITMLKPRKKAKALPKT
T1 sequence (P53853 1-264 partner): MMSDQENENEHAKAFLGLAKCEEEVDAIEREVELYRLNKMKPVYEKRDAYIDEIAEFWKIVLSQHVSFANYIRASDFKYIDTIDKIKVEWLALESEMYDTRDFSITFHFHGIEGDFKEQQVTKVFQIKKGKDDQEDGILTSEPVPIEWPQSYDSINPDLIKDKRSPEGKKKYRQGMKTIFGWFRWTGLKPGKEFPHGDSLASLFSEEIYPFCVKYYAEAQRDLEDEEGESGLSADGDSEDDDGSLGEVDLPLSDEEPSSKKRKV
Put plainly: Isothermal titration calorimetry into Rtt109-Vps75. Type of data set: binding, yeast (Saccharomyces cerevisiae).

Data set [2] has as its target Rtt109 D288N (with Vps75) (Saccharomyces cerevisiae, UniProt P53853+Q07794, D288N). Type of data set: biochemical, yeast (Saccharomyces cerevisiae). The settings on record: AcCoA varied 0.5-30 μM, 400 μM H3 peptide, 0.1-0.5 μM Rtt109 variant, 4 μM Vps75, 50 mM Tris pH 7.5, 25 °C.
Data set [3] addresses Rtt109 D287N (with Vps75) (Saccharomyces cerevisiae, UniProt P53853+Q07794, D287N). The class given is biochemical, yeast (Saccharomyces cerevisiae). The settings on record: AcCoA varied 0.5-30 μM, 400 μM H3 peptide, 0.1-0.5 μM Rtt109 variant, 4 μM Vps75, 50 mM Tris pH 7.5, 25 °C.
The target in data set [4] is T1, Rtt109-Vps75. Put plainly: CoA product inhibition of Rtt109-Vps75. The class given is biochemical, yeast (Saccharomyces cerevisiae).
Data set [5] is described as follows: Stability of Rtt109 alone. The settings on record: without AcCoA or Vps75, 25°C. The class given is physicochemical.
For a further data set, the system named is Rtt109. As to the kind of experiment: HAT activity with fluorescein-labeled Vps75. Type of data set: biochemical, yeast. The settings on record: fluorescein-5-maleimide labeled Vps75, 1:1 label to Vps75.
Another data set has as its system p300. The settings on record: cited from earlier work.

“Also recorded” adds a separate entry of the source. Where two headings read alike, the source gives them in different places.

We go through five molecules from article PMC2917178 (Biochemistry, 2010).

Rtt109 D288N (with Vps75), sequence (Q07794 whole entry D288N, one chain of several): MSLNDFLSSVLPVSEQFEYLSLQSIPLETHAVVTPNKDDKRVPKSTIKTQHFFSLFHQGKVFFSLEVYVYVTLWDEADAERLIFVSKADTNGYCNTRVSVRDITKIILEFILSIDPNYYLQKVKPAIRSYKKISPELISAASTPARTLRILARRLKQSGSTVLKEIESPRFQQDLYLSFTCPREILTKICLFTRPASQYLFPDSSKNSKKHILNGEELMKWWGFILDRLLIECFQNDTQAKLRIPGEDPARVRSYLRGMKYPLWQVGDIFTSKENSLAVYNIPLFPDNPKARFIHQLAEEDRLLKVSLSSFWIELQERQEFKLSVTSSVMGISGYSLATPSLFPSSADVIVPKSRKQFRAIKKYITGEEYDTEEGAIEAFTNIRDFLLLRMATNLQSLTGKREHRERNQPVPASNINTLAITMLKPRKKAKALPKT
Rtt109 D287N (with Vps75), sequence (Q07794 whole entry D287N, one chain of several): as the sequence (Q07794 whole entry D288N, one chain of several) above, with D287N, N288D counted along it

The molecule `CC(=O)SCCNC(=O)CCNC(=O)[C@H](O)C(C)(C)COP(=O)(O)OP(=O)(O)OC[C@H]1O[C@@H](n2cnc3c(N)ncnc32)[C@H](O)[C@@H]1OP(=O)(O)O` [AcCoA, acetyl-Coenzyme A] gave a Kd on Rtt109-Vps75 [1] (167 μM AcCoA titrated into 5.8 μM Rtt109-Vps75, 50 mM Tris pH 7.5 at 25°C, 5% glycerol, 50 mM NaCl, 2 mM β-mercaptoethanol, 1 mM EDTA, one-site model) of 1.4 ± 0.3 µM. The “binding affinity for AcCoA over CoA” value at Rtt109-Vps75 [1] (ratio of binding affinities, Rtt109-Vps75) came out at 30 fold. In data set [2], the Michaelis constant (Km) came out at 4.9 ± 0.9 µM, the kcat is reported as 2.8 ± 0.2 × 10^-3 s^-1 and the kcat/Km is 6 ± 1 × 10^2 M^-1s^-1. For the same molecule, in data set [3], the Km stood at 0.7 ± 0.3 µM, the kcat is recorded as 1.2 ± 0.1 × 10^-2 s^-1 and the kcat/Km was 1.7 ± 0.7 × 10^4 M^-1s^-1.
Regarding `CC(C)(COP(=O)(O)OP(=O)(O)OC[C@H]1O[C@@H](n2cnc3c(N)ncnc32)[C@H](O)[C@@H]1OP(=O)(O)O)[C@@H](O)C(=O)NCCC(=O)NCCS` [CoA, Coenzyme A], binding on Rtt109-Vps75 [1] was characterised by a dissociation constant (Kd) of 43 ± 5 µM. The molecule further displayed a Ki at Rtt109-Vps75 [4] of 110 ± 20 µM. Besides, the “product inhibition pattern versus AcCoA” value on Rtt109-Vps75 [4] (varied AcCoA, fixed CoA, 5 μM full-length H3, double reciprocal plot) is recorded as “binds competitively with AcCoA; also recorded: competitive inhibition”.
Regarding “Rtt109: yeast histone acetyltransferase, Regulator of Ty1 Transposition 109”, in data set [5], the “stability of protein alone” value was “unstable and precipitates at 25 °C; also recorded: unstable protein and is highly prone to aggregation”.
With “labeled Vps75: Vps75 labeled with fluorescein-5-maleimide, 1:1”, the “loss in HAT activity on fluorescein labeling” value with Rtt109 is on record as < 2 fold.
Turning to “p300: mammalian HAT, structural homolog of Rtt109”, the “pKa of ionizable group required for catalysis” value in the data set on p300 was 8.4.
